Test system: platelets in whole blood
Test: Blood coagulability measurement of whole blood by dielectric constant (dielectric coagulometer, DiCA-Ex / DiCA-In)
Assay type: cell-based, human (healthy subject)
Experimental: Measurement of blood coagulability was conducted using the blood put to reaction in the experiment of 3-2 above. The measurement was carried out using a blood coagulation system analyzing device (dielectric coagulometer prototype No. 2), for performing the measurement of dielectric constant of the sample as aforementioned, and a comprehensive hemostatic ability measuring system ROTEM (registered trademark), at a measurement temperature of 37° C.
In the case of the blood coagulation system analyzing device, measurement of DiCA-Ex to which an aqueous calcium solution (0.2 M Ca) and a commercialized extrinsic stimulus reagent (100 fold dilution+PBS (v/v=1/5)) were added immediately before the start of measurement, and measurement of DiCA-In to which an aqueous calcium solution (0.2 M Ca) and a commercialized intrinsic stimulus reagent (+PBS(v/v=1/5)) were added, were conducted. The amount was unifiedly set to be 12 uL per 180 uL of blood.
The time of 10 minutes determinative of coagulation time was taken as an investigation time (FIG. 12-1), the maximum value was taken as 1, and the reciprocal of the difference therefrom was calculated (calculated CF), the results being depicted in FIG. 12-2. An average value obtained in the case where NaCl was added (control) was 17.7, whereas an average value obtained in the case where the platelet inducing substance was added was 12.7 (n=4).

| Compound | amplitude of time variation in dielectric constant (normalized) at 100 kHz (whole blood, versus +NaCl control) | difference between control and platelet inducing substance (platelet contribution part) (combination with ADP) |
| --- | --- | --- |
| thrombin receptive activated protein [TRAP] | the amplitude is raised | – |
| CCCCC[C@H](O)/C=C/[C@H]1[C@H](O)CC(=O)[C@@H]1CCCCCCC(=O)O [prostaglandin E1] | – | this difference is reduced |

From patent US20190049428A1, “PLATELET AGGREGABILITY ANALYZING DEVICE, PLATELET AGGREGABILITY ANALYZING SYSTEM, PLATELET AGGREGABILITY ANALYZING PROGRAM, AND METHOD OF ANALYZING PLATELET AGGREGABILITY” (Sony Corporation, priority 2016, published 2019)
